For the experiment, the system named is A431 cells. The experiment can be described thus: EW-excited fluorescence of IRDye labeled EGF interacting with A431 cells on RWG biosensor microplate. The class given is cell-based, human. The protocol:
384-well Epic® cell assay microplates were obtained from Corning Inc. (Corning, N.Y.). The surface of each Epic® cell assay microplate is tissue culture compatible and enables the attachment and normal growth of adherent cells, including native cells, recombinant or engineered cell lines, primary cells, and like cells.
Cell culturing—Human epidermoid carcinoma A431 cells (American Type Cell Culture) were grown in Dulbecco's modified Eagle's medium (DMEM) supplemented with 10% fetal bovine serum (FBS), 4.5 g/liter glucose, 2 mM glutamine, and antibiotics. About 1.5 to about 2×10^4 cells at passage 3 to 15 suspended in 200 microliters of the DMEM medium containing 10% FBS were placed in each well of a 384-well microplate. After cell seeding, the cells were cultured at 37° C. under air/5% CO2 until about 95% confluency was reached (about 1-2 days). The confluent cells were washed with serum-free medium and incubated in the same medium at 37° C. under air/5% CO2 for 20 hours. On the day of assay, the cells were washed with HBSS (Hanks Balanced Salt Solution with 20 mM HEPES) buffer. The resulting A431 cells were assayed without or with pretreatment with modulators including, for example, AG1478, dynamin inhibitory peptide (DIPC), or unlabeled EGF. The EGFR was activated with the IRDye® labeled EGF and the resultant DMR signals were then recorded.
Optical system—An optical detection system is constructed and used for dual-detection of both EW-based labeled-free signal and EW-excited fluorescence of IR dye molecules as shown in FIG. 2C.
FIGS. 12A to 12D show measured fluorescence intensities of A431 cells cultured on the biosensor microplate surfaces in response to stimulation with IRDye® labeled EGF (64 nM), as a function of time.

Where [1] appears, read: pretreatment 10 micromolar for 1 hr, then IRDye labeled EGF 64 nM (FIG. 12C).

Regarding `COc1cc2ncnc(Nc3cccc(Cl)c3)c2cc1OC` [AG1478], under setting [1], the “effect on decay phase in fluorescence intensity” value was “completely blocked” and the “effect on initial increase phase in fluorescence intensity” value is given as “complicated effects”.
For the molecule “IRDye-EGF: near-infrared (NIR) labeled recombinant human epidermal growth factor, 54 amino acid residues, conjugated with the IRDye fluorophore; LI-COR Biosciences”, for the setting “IRDye labeled EGF 64 nM, A431 cells without any pretreatment (FIG. 12A)”, the “fluorescence intensity as a function of time” value is “an initial increase in fluorescence; and thereafter by a slow decrease in fluorescence”.
For the molecule “unlabeled EGF: epidermal growth factor; causes receptor internalization and desensitization; obtained from Sigma”, the “effect on both the increase and decrease phase in fluorescence intensity” value (pretreatment 32 nM for 1 hr, then IRDye labeled EGF 64 nM (FIG. 12D)) is “almost completely blocked”.

These data come from patent US20120064519A1, “SYSTEM AND METHOD FOR DUAL-DETECTION OF A CELLULAR RESPONSE” (priority 2007, published 2012).
